Experimental data reported in ChEMBL document CHEMBL1155993, “5-(2-Pyrimidinyl)-imidazo[1,2-a]pyridines are antibacterial agents targeting the ATPase domains of DNA gyrase and topoisomerase IV” (Bioorg Med Chem Lett, 2009).
Converted amounts (≈) assume the structure as drawn.

Tests used:
[1] = test system: Staphylococcus aureus; assay: Antibacterial activity against methicillin resistant Staphylococcus aureus 01A-1095 by NCCLS method; assay type: functional
[2] = test system: Staphylococcus aureus; assay: Antibacterial activity against Staphylococcus aureus UC76 by NCCLS method; assay type: functional, organism-based
[3] = molecular target: T1, ParE (Streptococcus pneumoniae, UniProt Q7X1P7); assay: Inhibition of Streptococcus pneumoniae SP-3 parE after 30 mins
T1 sequence (Q7X1P7 whole entry): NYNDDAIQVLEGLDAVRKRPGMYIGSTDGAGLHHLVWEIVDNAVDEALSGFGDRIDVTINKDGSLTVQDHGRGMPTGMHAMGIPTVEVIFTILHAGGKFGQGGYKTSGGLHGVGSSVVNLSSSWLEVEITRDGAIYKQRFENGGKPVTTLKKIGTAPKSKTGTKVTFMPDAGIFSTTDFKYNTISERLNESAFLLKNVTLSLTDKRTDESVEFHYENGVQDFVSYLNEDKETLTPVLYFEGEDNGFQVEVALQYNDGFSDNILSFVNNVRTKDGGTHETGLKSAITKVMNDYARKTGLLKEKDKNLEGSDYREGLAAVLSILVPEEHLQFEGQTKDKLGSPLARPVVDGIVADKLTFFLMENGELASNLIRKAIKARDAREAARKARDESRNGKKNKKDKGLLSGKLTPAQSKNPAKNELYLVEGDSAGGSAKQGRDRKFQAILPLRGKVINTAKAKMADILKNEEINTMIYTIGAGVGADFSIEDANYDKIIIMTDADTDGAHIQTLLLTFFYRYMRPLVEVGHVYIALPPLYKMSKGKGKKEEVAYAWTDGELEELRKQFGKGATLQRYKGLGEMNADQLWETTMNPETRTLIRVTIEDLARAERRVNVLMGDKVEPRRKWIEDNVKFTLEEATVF

[4] = test system: Streptococcus pneumoniae; assay: Antibacterial activity against fluoroquinolone resistant Streptococcus pneumoniae SP-3765 by NCCLS method; assay type: functional
[5] = test system: Streptococcus pyogenes; assay: Antibacterial activity against Streptococcus pyogenes C203 by NCCLS method; assay type: functional
[6] = test system: Streptococcus pneumoniae; assay: Antibacterial activity against Streptococcus pneumoniae D39 by NCCLS method; assay type: functional

CO[C@@H]1[C@@H](OC(N)=O)[C@@H](O)[C@H](Oc2ccc3c(O)c(NC(=O)c4ccc(O)c(CC=C(C)C)c4)c(=O)oc3c2C)OC1(C)C [NOVOBIOCIN]
MIC [1]: 0.125 µg/mL (≈ 0.204 µM) | MIC [2]: 0.125 µg/mL (≈ 0.204 µM) | IC50 [3]: 2.03 µM | MIC [4]: 4 µg/mL (≈ 6.53 µM) | MIC [5]: 8 µg/mL (≈ 13.1 µM) | MIC [6]: 4 µg/mL (≈ 6.53 µM)
